Experimental data from paper PMC10262914 (Bioorganic chemistry, 2022).
Converted amounts (≈) assume the structure as drawn. “And” between values parts separate entries of the source, which are not always exact repeats. Identical values can stand only once. Like-named read-outs stand apart in the source and are kept apart here.

Assays:
[1] = system: Mycobacterium tuberculosis H37Rv; experiment: Alamar blue metabolic readout assay; assay type: cell-based; details: for GAS MIC: M. tuberculosis H37Rv; for MIC: Mycobacterium tuberculosis, H37RV, read-out: GAS MIC
[2] = system: Mycobacterium tuberculosis H37Rv; experiment: Alamar blue metabolic readout assay; assay type: cell-based; details: for 7H12 MIC: M. tuberculosis H37Rv; for MIC: Mycobacterium tuberculosis, H37RV, read-out: 7H12 MIC
[3] = system: Mycobacterium tuberculosis H37Rv; experiment: Low oxygen recovery assay; assay type: cell-based; details: Mycobacterium tuberculosis, H37RV, read-out: LORA MIC
[4] = system: VERO cells (kidney epithelial cells); experiment: Toxicity against VERO cells; assay type: cell-based
[5] = system: Mycobacterium tuberculosis H37Rv; experiment: Alamar blue assay, MIC stated as range over GAS and 7H12 media; assay type: cell-based; details: for MIC (range over both media): H37Rv
[6] = mouse, microsomes
[7] = microsomes
[8] = human, microsomes
in vitro [9] = details: mouse, microsomes, pH 7.4
in vitro [10] = details: monkey, microsomes, pH 7.4
in vitro [11] = details: human, microsomes, pH 7.4
[12] = Chlorocebus sabaeus, Vero, read-out: Vero IC50, toxicity against Vero cells

Row | Compound | GAS MIC ([1]; GAS media) | MIC [1] [µM] | 7H12 MIC ([2]; 7H12 media) | MIC [2] [µM] | MIC [3] [µM] | IC50 [4, 12] [µM] | also measured
1 | [2H]c1c(C([2H])([2H])[2H])c([2H])n2c(C(=O)NCc3ccc(OC(F)(F)F)cc3)c(C)nc2c1[2H] [Compound 34, 2-Methyl-6-(methyl-d3)-N-(4-(trifluoromethoxy)benzyl)imidazo [1,2-a]pyridine-5,7,8-d3-3-carboxamide] | 2.2 ± 0.4 nM | 0.0022 (≈ 0.813 ng/mL) | 5.5 ± 1.8 nM | 0.0055 (≈ 2.03 ng/mL) | > 5 | > 50 | –
2 | [2H]c1c(C([2H])([2H])[2H])c([2H])n2c(C(=O)NCc3ccc4c(c3)CCCO4)c(C)nc2c1[2H] [Compound 39, N-(Chroman-6-ylmethyl)-2-methyl-6-(methyl-d3)imidazo[1,2-a] pyridine-5,7,8-d3-3-carboxamide] | 22.5 ± 1.8 nM | 0.0225 (≈ 7.68 ng/mL) | 7.2 ± 0.4 nM | 0.0072 (≈ 2.46 ng/mL) | – | – | –
3 | Cc1ccc2nc(C)c(C(=O)NCc3ccc(C(F)(F)F)cc3)n2c1 [Compound 57, 2,6-Bis(Methyl-d3)-N-((4-(trifluoromethyl)phenyl)methyl-d2) imidazo[1,2-a]pyridine-7,8-d2-3-carboxamide] | – | – | – | – | – | – | IC50 ([4]; read-out: Vero IC50, toxicity against Vero cells): > 50 µM
4 | CCc1nc2ccc(Cl)cn2c1C(=O)NCc1ccc(N2CCC(c3ccc(OC(F)(F)F)cc3)CC2)cc1 [Compound Q203, Telacebec, reference compound] | 0.9 ± 0.4 nM | 0.0009 (≈ 0.501 ng/mL) | 3.6 ± 0.5 nM | 0.0036 (≈ 2.01 ng/mL) | > 5 | – | –
5 | [2H]c1c(C([2H])([2H])[2H])c([2H])n2c(C(=O)NCc3ccc(Cl)cc3)c(C)nc2c1[2H] [Compound 31, N-(4-Chlorobenzyl)-2-methyl-6-(methyl-d3)imidazo[1,2-a]pyridine-5,7,8-d3-3-carboxamide] | 12.0 ± 1.5 nM | 0.012 (≈ 3.84 ng/mL) | 23.1 ± 7.1 nM | 0.0231 (≈ 7.39 ng/mL) | 7.09 (≈ 2270 ng/mL) | > 10 | –
6 | [2H]c1c(C([2H])([2H])[2H])c([2H])n2c(C(=O)NCc3cc(F)cc(F)c3)c(C)nc2c1[2H] [Compound 46, N-(3,5-Difluorobenzyl)-2-methyl-6-(methyl-d3)imidazo[1,2-a] pyridine-5,7,8-d3-3-carboxamide] | 7.2 ± 1.6 nM | 0.0072 (≈ 2.31 ng/mL) | 12.4 ± 4.5 nM | 0.0124 (≈ 3.98 ng/mL) | 6.91 (≈ 2220 ng/mL) | > 10 | MIC (range over both media) [5]: 7 to 12 nM
7 | [2H]c1c(C([2H])([2H])[2H])c([2H])n2c(C(=O)NCc3ccc(F)cc3)c(C)nc2c1[2H] [Compound 29, N-(4-Fluorobenzyl)-2-methyl-6-(methyl-d3)imidazo[1,2-a]pyridine-5,7,8-d3–3-carboxamide] | 23.3 ± 0.5 nM | 0.0233 (≈ 7.07 ng/mL) | – | 0.11 ± 0.0118 (≈ 33.4 ng/mL) | > 10 | > 10 | –
8 | [2H]c1c(C([2H])([2H])[2H])c([2H])n2c(C(=O)NCc3ccc(OC)cc3)c(C)nc2c1[2H] [Compound 37, N-(4-Methoxybenzyl)-2-methyl-6-(methyl-d3)imidazo[1,2-a] pyridine-5,7,8-d3-3-carboxamide] | 24.5 ± 0.5 nM | 0.0245 (≈ 7.73 ng/mL) | 35.4 ± 10.0 nM | 0.0354 (≈ 11.2 ng/mL) | > 10 | > 10 | –
9 | [2H]c1c(C([2H])([2H])[2H])c([2H])n2c(C(=O)NCc3cccc(OC)c3)c(C)nc2c1[2H] [Compound 45, N-(3-Methoxybenzyl)-2-methyl-6-(methyl-d3)imidazo[1,2-a] pyridine-5,7,8-d3-3-carboxamide] | 20.5 ± 0.4 nM | 0.0205 (≈ 6.47 ng/mL) | 105 ± 19.1 nM | 0.105 (≈ 33.1 ng/mL) | – | – | fold less active than 37 ([2]; 7H12 media, MIC ratio versus para isomer 37): 3 fold
10 | [2H]c1c(C([2H])([2H])[2H])cn2c(C(=O)NCc3ccc(C(F)(F)F)cc3)c(C([2H])([2H])[2H])nc2c1[2H] [Compound 55, 2,6-Bis(methyl-d3)-N-(4-(trifluoromethyl)benzyl)imidazo[1,2-a] pyridine-7,8-d2-3-carboxamide] | – | 0.0096 ± 0.0026 (≈ 3.41 ng/mL) | – | 0.0049 ± 0.0013 (≈ 1.74 ng/mL) | > 10 | > 50 | CLint [6]: 42 ml/min/g protein; CLint [7]: 98 ml/min/g protein; CLint [8]: 38 ml/min/g protein; half-life at 2 μM (in vitro [9]): 33 min; half-life at 2 μM (in vitro [10]): 14 min; half-life at 2 μM (in vitro [11]): 36 min
11 | [2H]c1c(C([2H])([2H])[2H])c([2H])n2c(C(=O)NCc3ccc4c(c3)OCCO4)c(C)nc2c1[2H] [Compound 40, N-((2,3-Dihydrobenzo[b][1,4]dioxin-6-yl)methyl)-2-methyl-6-(methyl-d3)imidazo[1,2-a]pyridine-5,7,8-d3-3-carboxamide] | 10.1 ± 1.0 nM | 0.0101 (≈ 3.47 ng/mL) | 5.1 ± 1.6 nM | 0.0051 (≈ 1.75 ng/mL) | – | – | –
12 | [2H]c1c(C([2H])([2H])[2H])c([2H])n2c(C(=O)NCc3cccc(OC(F)(F)F)c3)c(C)nc2c1[2H] [Compound 43, 2-Methyl-6-(methyl-d3)-N-(3-(trifluoromethoxy)benzyl)imidazo [1,2-a]pyridine-5,7,8-d3-3-carboxamide] | – | 0.0263 ± 0.0036 (≈ 9.71 ng/mL) | – | 0.108 ± 0.0074 (≈ 39.9 ng/mL) | 4.92 (≈ 1820 ng/mL) | > 10 | fold less active than 30 ([1]; GAS media, MIC ratio versus compound 30 (printed as 4-OCF3 para)): ~ 2.9 fold; fold less active than 30 ([2]; 7H12 media, MIC ratio versus compound 30 (printed as 4-OCF3 para)): > 28 fold
13 | [2H]c1c(C([2H])([2H])[2H])c([2H])n2c(C(=O)NCc3ccccc3Cl)c(C)nc2c1[2H] [Compound 42, N-(2-Chlorobenzyl)-2-methyl-6-(methyl-d3)imidazo[1,2-a] pyridine-5,7,8-d3-3-carboxamide] | 13.4 ± 2.2 nM | 0.0134 (≈ 4.29 ng/mL) | 112 ± 19.5 nM | 0.112 (≈ 35.8 ng/mL) | 8.49 (≈ 2720 ng/mL) | > 10 | –
14 | [2H]c1c(C([2H])([2H])[2H])c([2H])n2c(C(=O)NCc3ccc(S(C)(=O)=O)cc3)c(C)nc2c1[2H] [Compound 33, 2-Methyl-6-(methyl-d3)-N-(4-(methylsulfonyl)benzyl)imidazo[1,2-a]pyridine-5,7,8-d3-3-carboxamide] | – | 0.174 ± 0.0269 (≈ 63.2 ng/mL) | – | 0.212 ± 0.0282 (≈ 77.1 ng/mL) | > 10 | > 10 | MIC (range over both media) [5]: 174 to 212 nM
15 | [2H]c1c(C([2H])([2H])[2H])c([2H])n2c(C(=O)NCc3ccc(OCC)cc3)c(C)nc2c1[2H] [Compound 38, N-(4-Ethoxybenzyl)-2-methyl-6-(methyl-d3)imidazo[1,2-a] pyridine-5,7,8-d3-3-carboxamide] | 9.2 ± 1.3 nM | 0.0092 (≈ 3.03 ng/mL) | – | 0.0236 ± 0.0104 (≈ 7.77 ng/mL) | – | – | –
16 | [2H]c1c(C([2H])([2H])[2H])c([2H])n2c(C(=O)NCc3ccc(S(F)(F)(F)(F)F)cc3)c(C)nc2c1[2H] [Compound 32, 2-Methyl-6-(methyl-d3)-N-(4-(pentafluoro-λ^6-sulfaneyl)benzyl) imidazo[1,2-a]pyridine-5,7,8-d3-3-carboxamide] | 2.9 nM and 2.9 ± 0.5 nM | – | 5.9 nM and 5.9 ± 0.3 nM | – | – | – | MIC (range over both media) [5]: 3 to 6 nM
17 | [2H]c1c(C([2H])([2H])[2H])c([2H])n2c(C(=O)NCc3cccc(Cl)c3)c(C)nc2c1[2H] [Compound 41, N-(3-Chlorobenzyl)-2-methyl-6-(methyl-d3)imidazo[1,2-a] pyridine-5,7,8-d3-3-carboxamide] | 3.5 ± 0.3 nM | 0.0035 (≈ 1.12 ng/mL) | 22.2 ± 5.7 nM | 0.0222 (≈ 7.1 ng/mL) | 4.52 (≈ 1450 ng/mL) | > 10 | –
18 | [2H]c1c(C([2H])([2H])[2H])c([2H])n2c(C(=O)NCc3cc(Cl)cc(Cl)c3)c(C)nc2c1[2H] [Compound 47, N-(3,5-Dichlorobenzyl)-2-methyl-6-(methyl-d3)imidazo[1,2-a] pyridine-5,7,8-d3-3-carboxamide] | 18.8 ± 2.8 nM | 0.0188 (≈ 6.66 ng/mL) | 40.0 ± 13.0 nM | 0.04 (≈ 14.2 ng/mL) | 8.87 (≈ 3140 ng/mL) | > 10 | fold less active than 46 ([5]; versus 46 (3,5-difluoro)): > 2 fold
